Measured values taken from ChEMBL document CHEMBL2331362, “Identification of N-acyl 4-(5-pyrimidine-2,4-dionyl)phenylalanine derivatives and their orally active prodrug esters as dual-acting alpha4-beta1 and alpha4-beta7 receptor antagonists” (Bioorg Med Chem Lett, 2013).
Active and inactive are the calls of the source. The rule behind the calls is not given here.

How the values were obtained:
[1] = Apparent permeability across human Caco2 cells; type: ADME, cell-based; settings: Caco-2
[2] = Oral bioavailability in rat; type: ADME, organism-based; settings: in vivo
[3] = Distribution coefficient, log D of the compound; type: physicochemical; settings: octanol/water
Cynomolgus monkey [4] = test: Antiinflammatory activity in atopic cynomolgus monkey challenged with aerosolized Ascaris suum extract assessed as reduction in neutrophils influx into lungs at 1 and 30 mg/kg, po administered 4 hrs before antigen challenge measured 48 hrs after antigen challenge; type: functional, organism-based; design: dose 30 mg/kg; settings: Macaca fascicularis
Cynomolgus monkey [5] = test: Antiinflammatory activity in atopic cynomolgus monkey challenged with aerosolized Ascaris suum extract assessed as reduction in lymphocytes influx into lungs at 1 and 30 mg/kg, po administered 4 hrs before antigen challenge measured 48 hrs after antigen challenge; type: functional, organism-based; design: dose 30 mg/kg; settings: Macaca fascicularis
Cynomolgus monkey [6] = test: Antiinflammatory activity in atopic cynomolgus monkey challenged with aerosolized Ascaris suum extract assessed as reduction in eosinophils influx into lungs at 1 and 30 mg/kg, po administered 4 hrs before antigen challenge measured 48 hrs after antigen challenge; type: functional, organism-based; design: dose 30 mg/kg; settings: Macaca fascicularis
Cynomolgus monkey [7] = test: Oral bioavailability in cynomolgus monkey assessed as (S)-2-(2,6-difluorobenzamido)-3-(4-(1,3,6-trimethyl-2,4-dioxo-1,2,3,4-tetrahydropyrimidin-5-yl)phenyl)propanoic acid level at 30 mg/kg; type: ADME, organism-based, Macaca fascicularis; settings: in vivo
Canis familiaris [8] = test: Oral bioavailability in dog assessed as (S)-2-(2,6-difluorobenzamido)-3-(4-(1,3,6-trimethyl-2,4-dioxo-1,2,3,4-tetrahydropyrimidin-5-yl)phenyl)propanoic acid level at 50 mg/kg; type: ADME, organism-based, Canis lupus familiaris; settings: in vivo
Rattus norvegicus [9] = test: Oral bioavailability in rat assessed as (S)-2-(2,6-difluorobenzamido)-3-(4-(1,3,6-trimethyl-2,4-dioxo-1,2,3,4-tetrahydropyrimidin-5-yl)phenyl)propanoic acid level at 50 mg/kg; type: ADME, organism-based; settings: in vivo
Mus musculus [10] = test: Oral bioavailability in mouse assessed as (S)-2-(2,6-difluorobenzamido)-3-(4-(1,3,6-trimethyl-2,4-dioxo-1,2,3,4-tetrahydropyrimidin-5-yl)phenyl)propanoic acid level at 50 mg/kg; type: ADME, organism-based; settings: in vivo
Cynomolgus monkey [11] = test: AUC (0 to 24 hrs) in cynomolgus monkey assessed as (S)-2-(2,6-difluorobenzamido)-3-(4-(1,3,6-trimethyl-2,4-dioxo-1,2,3,4-tetrahydropyrimidin-5-yl)phenyl)propanoic acid level at 30 mg/kg, po; type: ADME, organism-based, Macaca fascicularis, Plasma; design: time < 24 hr, dose 30 mg/kg, route oral; settings: in vivo
Canis familiaris [12] = test: AUC (0 to 24 hrs) in dog assessed as (S)-2-(2,6-difluorobenzamido)-3-(4-(1,3,6-trimethyl-2,4-dioxo-1,2,3,4-tetrahydropyrimidin-5-yl)phenyl)propanoic acid level at 50 mg/kg, po; type: ADME, organism-based, Canis lupus familiaris, Plasma; design: time < 24 hr, dose 50 mg/kg, route oral; settings: in vivo
Rattus norvegicus [13] = test: AUC (0 to 24 hrs) in rat assessed as (S)-2-(2,6-difluorobenzamido)-3-(4-(1,3,6-trimethyl-2,4-dioxo-1,2,3,4-tetrahydropyrimidin-5-yl)phenyl)propanoic acid level at 50 mg/kg, po; type: ADME, organism-based, Plasma; design: time < 24 hr, dose 50 mg/kg, route oral; settings: in vivo
Mus musculus [14] = test: AUC (0 to 24 hrs) in mouse assessed as (S)-2-(2,6-difluorobenzamido)-3-(4-(1,3,6-trimethyl-2,4-dioxo-1,2,3,4-tetrahydropyrimidin-5-yl)phenyl)propanoic acid level at 50 mg/kg, po; type: ADME, organism-based, Plasma; design: time < 24 hr, dose 50 mg/kg, route oral; settings: in vivo
Cynomolgus monkey [15] = test: Cmax in cynomolgus monkey assessed as (S)-2-(2,6-difluorobenzamido)-3-(4-(1,3,6-trimethyl-2,4-dioxo-1,2,3,4-tetrahydropyrimidin-5-yl)phenyl)propanoic acid level at 30 mg/kg, po; type: ADME, organism-based, Macaca fascicularis; design: dose 30 mg/kg, route oral; settings: in vivo
Canis familiaris [16] = test: Cmax in dog assessed as (S)-2-(2,6-difluorobenzamido)-3-(4-(1,3,6-trimethyl-2,4-dioxo-1,2,3,4-tetrahydropyrimidin-5-yl)phenyl)propanoic acid level at 50 mg/kg, po; type: ADME, organism-based, Canis lupus familiaris; design: dose 50 mg/kg, route oral; settings: in vivo
Rattus norvegicus [17] = test: Cmax in rat assessed as (S)-2-(2,6-difluorobenzamido)-3-(4-(1,3,6-trimethyl-2,4-dioxo-1,2,3,4-tetrahydropyrimidin-5-yl)phenyl)propanoic acid level at 50 mg/kg, po; type: ADME, organism-based; design: dose 50 mg/kg, route oral; settings: in vivo
Mus musculus [18] = test: Cmax in mouse assessed as (S)-2-(2,6-difluorobenzamido)-3-(4-(1,3,6-trimethyl-2,4-dioxo-1,2,3,4-tetrahydropyrimidin-5-yl)phenyl)propanoic acid level at 50 mg/kg, po; type: ADME, organism-based; design: dose 50 mg/kg, route oral; settings: in vivo
Cynomolgus monkey [19] = test: Tmax in cynomolgus monkey assessed as (S)-2-(2,6-difluorobenzamido)-3-(4-(1,3,6-trimethyl-2,4-dioxo-1,2,3,4-tetrahydropyrimidin-5-yl)phenyl)propanoic acid level at 30 mg/kg, po; type: ADME, organism-based, Macaca fascicularis; design: dose 30 mg/kg, route oral; settings: in vivo
Canis familiaris [20] = test: Tmax in dog assessed as (S)-2-(2,6-difluorobenzamido)-3-(4-(1,3,6-trimethyl-2,4-dioxo-1,2,3,4-tetrahydropyrimidin-5-yl)phenyl)propanoic acid level at 50 mg/kg, po; type: ADME, organism-based, Canis lupus familiaris; design: dose 50 mg/kg, route oral; settings: in vivo
Rattus norvegicus [21] = test: Tmax in rat assessed as (S)-2-(2,6-difluorobenzamido)-3-(4-(1,3,6-trimethyl-2,4-dioxo-1,2,3,4-tetrahydropyrimidin-5-yl)phenyl)propanoic acid level at 50 mg/kg, po; type: ADME, organism-based; design: dose 50 mg/kg, route oral; settings: in vivo
Mus musculus [22] = test: Tmax in mouse assessed as (S)-2-(2,6-difluorobenzamido)-3-(4-(1,3,6-trimethyl-2,4-dioxo-1,2,3,4-tetrahydropyrimidin-5-yl)phenyl)propanoic acid level at 50 mg/kg, po; type: ADME, organism-based; design: dose 50 mg/kg, route oral; settings: in vivo

CCOC(=O)[C@H](Cc1ccc(-c2c(C)n(C)c(=O)n(C)c2=O)cc1)NC(=O)c1c(F)cccc1F
Papp [1]: 26.9 ×10⁻⁶ cm/s | bioavailability [2]: 9% | logD [3]: 1.73 | Activity (Cynomolgus monkey [4]): Active | Activity (Cynomolgus monkey [5]): Active | Activity (Cynomolgus monkey [6]): Active | F (Cynomolgus monkey [7]): 7% | F (Canis familiaris [8]): 6% | F (Rattus norvegicus [9]): 9% | F (Mus musculus [10]): 22% | AUC (Cynomolgus monkey [11]): 3146 ng·h/mL | AUC (Canis familiaris [12]): 1690 ng·h/mL | AUC (Rattus norvegicus [13]): 18097 ng·h/mL | AUC (Mus musculus [14]): 8547 ng·h/mL | Cmax (Cynomolgus monkey [15]): 337 ng/mL | Cmax (Canis familiaris [16]): 471 ng/mL | Cmax (Rattus norvegicus [17]): 5287 ng/mL | Cmax (Mus musculus [18]): 2988 ng/mL | Tmax (Cynomolgus monkey [19]): 2 h | Tmax (Canis familiaris [20]): 1 h | Tmax (Rattus norvegicus [21]): 1.3 h | Tmax (Mus musculus [22]): 0.25 h
